The record followed here is US9067977B2, “Peptides derivatized with A-B-C-D- and their therapeutical use” (Novo Nordisk A/S, priority 2007, dated 2015).

Starred links: 1 amine or outer side, 2 acyl side, 3 side chain; linkers in the order of their positions; H or OH if unused. Non-standard residues stand in square brackets, D forms with d. Residues, ends and D or L forms follow the SMILES beside them. Groups on a side chain read outwards from the residue. *: point of attachment. X1 = O=C(CCCCCCCCCCCCCCCc1nnn[nH]1)NS(=O)(=O)CCCC(=O)*; C20 diacid = O=C(O)CCCCCCCCCCCCCCCCCCC(=O)*; γGlu = O=C(O)[C@H](CCC(=O)[*:2])N[*:1]; Desaminohistidyl = O=C(CCc1c[nH]cn1)*; 12Ado = NCCCCCCCCCCCC(=O)O; AEEA = NCCOCCOCC(=O)O; Aib = CC(C)(N)C(=O)O; Inp = O=C(O)C1CCNCC1

The target of the data set is human serum albumin (HSA) (Homo sapiens, UniProt P02768). In words: Albumin binding affinity, competition scintillation proximity assay.
Sequence of human serum albumin (HSA) (P02768 25-609): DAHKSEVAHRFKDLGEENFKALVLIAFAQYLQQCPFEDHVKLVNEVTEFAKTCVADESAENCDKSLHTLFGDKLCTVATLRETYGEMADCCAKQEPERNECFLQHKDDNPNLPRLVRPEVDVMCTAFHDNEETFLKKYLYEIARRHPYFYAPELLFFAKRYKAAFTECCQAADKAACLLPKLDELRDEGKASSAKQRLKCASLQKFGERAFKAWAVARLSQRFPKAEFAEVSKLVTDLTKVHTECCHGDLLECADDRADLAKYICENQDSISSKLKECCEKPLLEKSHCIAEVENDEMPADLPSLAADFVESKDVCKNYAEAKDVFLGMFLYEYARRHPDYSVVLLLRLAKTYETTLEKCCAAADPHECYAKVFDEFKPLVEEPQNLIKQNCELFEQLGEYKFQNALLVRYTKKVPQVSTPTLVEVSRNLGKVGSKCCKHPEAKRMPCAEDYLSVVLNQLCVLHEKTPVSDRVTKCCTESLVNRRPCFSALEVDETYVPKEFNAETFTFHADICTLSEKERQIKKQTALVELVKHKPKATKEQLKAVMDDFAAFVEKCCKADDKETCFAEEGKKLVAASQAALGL

Description: Streptavidin-SPA beads (GE Healthcare RPNQ0009) were incubated with biotinylated HSA for 5 hours. The beads were washed with buffer to remove unbound HSA. […] After 20 hours of gentle rocking at room temperature the plates were centrifuged and counted on a TopCounter.

Broadly, the EC50 is the concentration that produces a half-maximal response. The low end stands for a more potent agent, the high end for a less potent agent. In turn, `CC[C@H](C)[C@H](NC(=O)[C@H](Cc1ccccc1)NC(=O)[C@H](CCC(=O)O)NC(=O)[C@H](CCCNC(=N)N)NC(=O)[C@H](C)NC(=O)[C@H](C)NC(=O)[C@H](CCC(N)=O)NC(=O)[C@H](CCC(=O)O)NC(=O)[C@H](CCC(=O)O)NC(=O)[C@H](CC(C)C)NC(=O)[C@H](Cc1ccc(O)cc1)NC(=O)[C@H](CO)NC(=O)[C@H](CO)NC(=O)[C@@H](NC(=O)[C@H](CC(=O)O)NC(=O)[C@H](CO)NC(=O)[C@@H](NC(=O)[C@H](Cc1ccccc1)NC(=O)[C@@H](NC(=O)CNC(=O)[C@H](CCC(=O)O)NC(=O)[C@H](C)NC(=O)CCc1c[nH]cn1)[C@@H](C)O)[C@@H](C)O)C(C)C)C(=O)N[C@@H](C)C(=O)N[C@@H](Cc1c[nH]c2ccccc12)C(=O)N[C@@H](CC(C)C)C(=O)N[C@H](C(=O)N[C@@H](CCCNC(=N)N)C(=O)NCC(=O)N[C@@H](CCCNC(=N)N)C(=O)NCC(=O)N[C@@H](CCCCNC(=O)CC[C@H](NC(=O)C1CCN(C(=O)CCCCCCCCCCCCCCCCCCC(=O)O)CC1)C(=O)O)C(=O)O)C(C)C` [Example 62, [DesaminoHis7,Glu22,Arg26,34]-GLP-1 (7-37)-Lys-((S)-4-Carboxy-4-{[1-(19-carboxy-nonadecanoyl)-piperidine-4-carbonyl]-amino}-butyryl) peptide] (Desaminohistidyl-AEGTFTSDVSSYLEEQAAREFIAWLVRGRGK([γGlu-Inp-C20 diacid])-OH) showed a half-maximal effective concentration (EC50) of 300 to 800 nM.
In the case of `CC[C@H](C)[C@H](NC(=O)[C@H](Cc1ccccc1)NC(=O)[C@H](CCC(=O)O)NC(=O)[C@H](CCCNC(=N)N)NC(=O)[C@H](C)NC(=O)[C@H](C)NC(=O)[C@H](CCC(N)=O)NC(=O)[C@H](CCC(=O)O)NC(=O)[C@H](CCC(=O)O)NC(=O)[C@H](CC(C)C)NC(=O)[C@H](Cc1ccc(O)cc1)NC(=O)[C@H](CO)NC(=O)[C@H](CO)NC(=O)[C@@H](NC(=O)[C@H](CC(=O)O)NC(=O)[C@H](CO)NC(=O)[C@@H](NC(=O)[C@H](Cc1ccccc1)NC(=O)[C@@H](NC(=O)CNC(=O)[C@H](CCC(=O)O)NC(=O)[C@H](C)NC(=O)CCc1c[nH]cn1)[C@@H](C)O)[C@@H](C)O)C(C)C)C(=O)N[C@@H](C)C(=O)N[C@@H](Cc1c[nH]c2ccccc12)C(=O)N[C@@H](CC(C)C)C(=O)N[C@H](C(=O)N[C@@H](CCCNC(=N)N)C(=O)NCC(=O)N[C@@H](CCCNC(=N)N)C(=O)N[C@@H](CCCCNC(=O)COCCOCCNC(=O)CC[C@H](NC(=O)CC[C@H](NC(=O)CCCCCCCCCCCNC(=O)CCCS(=O)(=O)NC(=O)CCCCCCCCCCCCCCCc1nnn(C(C)(C)C)n1)C(=O)O)C(=O)O)C(=O)O)C(C)C` [Example 64, N-epsilon37-{2-[2-(2-{(S)-4-[(S)-4-(12-{4-[16-(2-tert-Butyl-2H-tetrazol-5-yl)-hexadecanoylsulfamoyl]butyrylamino}dodecanoylamino)-4-carboxybutyrylamino]-4-carboxybutyrylamino}ethoxy)ethoxy]acetyl}[DesaminoHis7,Glu22,Arg26,Arg34,Lys37] GLP-1 (7-37)], the EC50 was 1 to 100 nM.
As for `CC[C@H](C)[C@H](NC(=O)[C@H](Cc1ccccc1)NC(=O)[C@H](CCC(=O)O)NC(=O)[C@H](CCCNC(=N)N)NC(=O)[C@H](C)NC(=O)[C@H](C)NC(=O)[C@H](CCC(N)=O)NC(=O)CNC(=O)[C@H](CCC(=O)O)NC(=O)[C@H](CC(C)C)NC(=O)[C@H](Cc1ccc(O)cc1)NC(=O)[C@H](CO)NC(=O)[C@H](CO)NC(=O)[C@@H](NC(=O)[C@H](CC(=O)O)NC(=O)[C@H](CO)NC(=O)[C@@H](NC(=O)[C@H](Cc1ccccc1)NC(=O)[C@@H](NC(=O)CNC(=O)[C@H](CCC(=O)O)NC(=O)[C@H](C)NC(=O)CCc1c[nH]cn1)[C@@H](C)O)[C@@H](C)O)C(C)C)C(=O)N[C@@H](C)C(=O)N[C@@H](Cc1c[nH]c2ccccc12)C(=O)N[C@@H](CC(C)C)C(=O)N[C@H](C(=O)N[C@@H](CCCNC(=N)N)C(=O)NCC(=O)N[C@@H](CCCNC(=N)N)C(=O)N[C@@H](CCCCNC(=O)COCCOCCNC(=O)CC[C@H](NC(=O)CC[C@H](NC(=O)CCCCCCCCCCCNC(=O)CCCS(=O)(=O)NC(=O)CCCCCCCCCCCCCCCc1nnn[nH]1)C(=O)O)C(=O)O)C(=O)O)C(C)C` [Example 65, N-epsilon37-[2-(2-{2-[(S)-4-Carboxy-4-((S)-4-carboxy-4-{12-[4-(16-(1H-tetrazol-5-yl)hexadecanoylsulfamoyl)butyrylamino]dodecanoylamino}butyrylamino)butyrylamino]ethoxy}ethoxy)acetyl][DesaminoHis7,Arg26,Arg34,Lys37]GLP-1-(7-37)], the EC50 at 20 h (human, biotinylated human serum albumin on streptavidin-SPA beads, pH 7.4) lay within 1 to 100 nM.
The compound `CC[C@H](C)[C@H](NC(=O)[C@H](Cc1ccccc1)NC(=O)[C@H](CCC(=O)O)NC(=O)[C@H](CCCNC(=N)N)NC(=O)[C@H](C)NC(=O)[C@H](C)NC(=O)[C@H](CCC(N)=O)NC(=O)[C@H](CCC(=O)O)NC(=O)[C@H](CCC(=O)O)NC(=O)[C@H](CC(C)C)NC(=O)[C@H](Cc1ccc(O)cc1)NC(=O)[C@H](CO)NC(=O)[C@H](CO)NC(=O)[C@@H](NC(=O)[C@H](CC(=O)O)NC(=O)[C@H](CO)NC(=O)[C@@H](NC(=O)[C@H](Cc1ccccc1)NC(=O)[C@@H](NC(=O)CNC(=O)[C@H](CCC(=O)O)NC(=O)[C@H](C)NC(=O)CCc1c[nH]cn1)[C@@H](C)O)[C@@H](C)O)C(C)C)C(=O)N[C@@H](C)C(=O)N[C@@H](Cc1c[nH]c2ccccc12)C(=O)N[C@@H](CC(C)C)C(=O)N[C@H](C(=O)N[C@@H](CCCNC(=N)N)C(=O)NCC(=O)N[C@@H](CCCNC(=N)N)C(=O)NCC(=O)N[C@@H](CCCCNC(=O)COCCOCCNC(=O)CC[C@H](NC(=O)CC[C@H](NC(=O)CCCCCCCCCCCNC(=O)CCCS(=O)(=O)NC(=O)CCCCCCCCCCCCCCCc1nnn[nH]1)C(=O)O)C(=O)O)C(N)=O)C(C)C` [Example 67, [ImPr^7,Arg^26,34,Glu^22]GLP-1-(7-37)Lys[2-(2-[2-((S)-4-((S)-4-(12-[4-(16-1H-tetrazol-5-ylhexadecanoylsulfamoyl)butyrylamino]dodecanoylamino)-4-carboxybutyrylamino)-4-carboxybutyrylamino)ethoxy]ethoxy)acetyl]-amid] (Desaminohistidyl-AEGTFTSDVSSYLEEQAAREFIAWLVRGRGK([AEEA-γGlu-γGlu-12Ado-X1])-NH2) came in with a 50% effective concentration (EC50) of 1 to 100 nM.
Regarding `CC[C@H](C)[C@H](NC(=O)[C@H](Cc1ccccc1)NC(=O)[C@H](CCC(=O)O)NC(=O)[C@H](CCCCNC(=O)COCCOCCNC(=O)COCCOCCNC(=O)CC[C@H](NC(=O)C1CCN(C(=O)CCCCCCCCCCCCCCCCCCC(=O)O)CC1)C(=O)O)NC(=O)[C@H](C)NC(=O)[C@H](C)NC(=O)[C@H](CCC(N)=O)NC(=O)[C@H](CCC(=O)O)NC(=O)[C@H](CCC(=O)O)NC(=O)[C@H](CC(C)C)NC(=O)[C@H](Cc1ccc(O)cc1)NC(=O)[C@H](CO)NC(=O)[C@H](CO)NC(=O)[C@@H](NC(=O)[C@H](CC(=O)O)NC(=O)[C@H](CO)NC(=O)[C@@H](NC(=O)[C@H](Cc1ccccc1)NC(=O)[C@@H](NC(=O)CNC(=O)[C@H](CCC(=O)O)NC(=O)C(C)(C)NC(=O)[C@@H](N)Cc1c[nH]cn1)[C@@H](C)O)[C@@H](C)O)C(C)C)C(=O)N[C@@H](C)C(=O)N[C@@H](Cc1c[nH]c2ccccc12)C(=O)N[C@@H](CC(C)C)C(=O)N[C@H](C(=O)N[C@@H](CCC(N)=O)C(=O)NCC(=O)N[C@@H](CCCNC(=N)N)C(=O)NCC(=O)O)C(C)C` [Example 69] (H-H[Aib]EGTFTSDVSSYLEEQAAK([AEEA-AEEA-γGlu-Inp-C20 diacid])EFIAWLVQGRG-OH), the EC50 fell in the range of 100 to 150 nM.
